Test results as given in patent US20250066383A1, “PDE 7 MODULATOR COMPOUNDS” (Omeros Corporation, priority 2023, published 2025).

Legend:
[1] = biological target: PDE7B (Homo sapiens (Human), UniProt Q9NP56); assay: PDE7B assay: inhibition of PDE7B hydrolysis of [3H]cAMP to [3H]AMP (scintillation proximity, yttrium silicate beads); format: biochemical; conditions: 16 nM [3H]cAMP, 30° C., 20 minutes; read-out: PDE 7B IC50
Description: (§1) PDE7A and PDE7B Assay. Compounds were tested for their activity by measuring the inhibition of PDE7A or PDE7B hydrolysis of [3H]cAMP to [3H]AMP. Generally, eight dilutions of compound were assayed in 50 mM Tris-HCl pH 7.5, 8.3 mM MgCl2, 0.5 mg/mL BSA, 1.7 mM EGTA, 16 nM [3H]cAMP, and 1% DMSO. PDE7A or PDE7B (typically 1-5 ng/mL) (BPS BioSciences, CA) is added to initiate the reaction. The reaction was incubated at 30° C. for 20 minutes. PDE7A and PDE7B hydrolysis was terminated by the addition of yttrium silicate beads (GE Healthcare, RPNQ0150) and counted on a Wallac Microbeta scintillation counter, 1-2 hours following the addition of the beads. Data was analyzed using XLfit […] from which ICso values were obtained.

[2] = biological target: PDE7A (Homo sapiens (Human), UniProt Q13946); assay: PDE7A assay: inhibition of PDE7A hydrolysis of [3H]cAMP to [3H]AMP (scintillation proximity, yttrium silicate beads); format: biochemical; conditions: 16 nM [3H]cAMP, 30° C., 20 minutes; read-out: PDE 7A IC50
Description: as §1

Chain of PDE7B (Q9NP56 whole entry): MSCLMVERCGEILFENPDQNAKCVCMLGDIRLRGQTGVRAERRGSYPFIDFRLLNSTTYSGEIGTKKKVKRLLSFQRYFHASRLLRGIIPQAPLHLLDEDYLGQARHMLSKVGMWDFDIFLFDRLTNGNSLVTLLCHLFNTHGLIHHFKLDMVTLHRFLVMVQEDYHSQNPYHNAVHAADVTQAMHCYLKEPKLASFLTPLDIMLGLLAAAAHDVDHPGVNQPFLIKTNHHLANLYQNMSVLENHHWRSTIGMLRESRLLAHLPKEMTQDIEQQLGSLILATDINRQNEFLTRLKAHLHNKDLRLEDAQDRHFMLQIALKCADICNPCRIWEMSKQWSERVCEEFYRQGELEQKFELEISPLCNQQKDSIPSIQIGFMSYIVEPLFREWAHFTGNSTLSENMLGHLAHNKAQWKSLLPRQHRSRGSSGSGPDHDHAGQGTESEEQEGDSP
Chain of PDE7A (Q13946 whole entry): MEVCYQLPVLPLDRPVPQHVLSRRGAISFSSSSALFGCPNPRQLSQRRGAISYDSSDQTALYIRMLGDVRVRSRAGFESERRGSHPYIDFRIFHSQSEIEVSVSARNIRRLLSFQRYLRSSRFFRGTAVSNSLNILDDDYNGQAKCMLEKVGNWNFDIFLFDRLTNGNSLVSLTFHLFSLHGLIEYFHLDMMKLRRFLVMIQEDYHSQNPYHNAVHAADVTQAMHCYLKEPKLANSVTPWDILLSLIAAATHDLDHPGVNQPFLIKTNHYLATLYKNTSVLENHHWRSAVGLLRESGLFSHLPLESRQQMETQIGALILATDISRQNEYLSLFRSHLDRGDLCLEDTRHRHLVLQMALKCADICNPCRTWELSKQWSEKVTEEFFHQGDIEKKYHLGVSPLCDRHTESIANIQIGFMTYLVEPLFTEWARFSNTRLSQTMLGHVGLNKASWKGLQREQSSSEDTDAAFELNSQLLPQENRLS

SMILES | IC50 [1] | IC50 [2]
Cc1nn(-c2ccccn2)c2sc(C(=O)N[C@H]3CC[C@H](N4CCOCC4)CC3)cc12 [Compound I-1, 3-methyl-N-((1r,4r)-4-morpholinocyclohex-yl)-1-(pyridin-2-yl)-1H-thieno[2,3-c]pyr-azole-5-carboxamide] | 100 to 500 nM | 100 to 500 nM
Cc1nn(-c2ccccc2Cl)c2sc(C(=O)N[C@H]3CC[C@H](N4CCOCC4)CC3)cc12 [Compound I-2, 1-(2-chlorophenyl)-3-methyl-N-((1r,4r)-4-morpholinocyclohex-yl)-1H-thieno[2,3-c] pyrazole-5-carbox-amide] | 10 to 30 nM | 10 to 30 nM
Cc1nn(-c2ccccc2Cl)c2sc(C(=O)N[C@H]3C[C@H](N4CCOCC4)C3)cc12 [Compound I-3, 1-(2-chlorophenyl)-3-methyl-N-((1r,3r)-3-morpholinocyclobut-yl)-1H-thieno[2,3-c] pyrazole-5-carbox-amide] | 30 to 100 nM | 10 to 30 nM
CC(=O)N1CCN([C@H]2CC[C@H](NC(=O)c3cc4c(C)nn(-c5ccccc5Cl)c4s3)CC2)CC1 [Compound I-4, N-((1r,4r)-4-(4-acetyl-piperazin-1-yl)cyclo-hexyl)-1-(2-chloro-phenyl)-3-methyl-1H-thieno[2,3-c]pyrazole-5-carboxamide] | < 10 nM | < 10 nM
CC(=O)N1CCN([C@H]2C[C@H](NC(=O)c3cc4c(C)nn(-c5ccccc5Cl)c4s3)C2)CC1 [Compound I-5, N-((1r,3r)-3-(4-acetyl-piperazin-1-yl)cyclo-butyl)-1-(2-chlorophen-yl)-3-methyl-1H-thieno [2,3-c]pyrazole-5-carboxamide] | 30 to 100 nM | 30 to 100 nM
Cc1nn(-c2ccccc2Cl)c2sc(C(=O)N[C@H]3C[C@H](N4CCN(C5CC5)CC4)C3)cc12 [Compound I-6, 1-(2-chlorophenyl)-N-((1r,3r)-3-(4-cyclo-propylpiperazin-1-yl)-cyclobutyl)-3-methyl-1H-thieno[2,3-c]pyr-azole-5-carboxamide] | 30 to 100 nM | 30 to 100 nM
Cc1nn(-c2ccccc2Cl)c2sc(C(=O)N[C@H]3CC[C@H](N4CC(OC(F)F)C4)CC3)cc12 [Compound I-7, 1-(2-chlorophenyl)-N-((1r,4r)-4-(3-(difluoro-methoxy)azetidin-1-yl)-cyclohexyl)-3-methyl-1H-thieno[2,3-c]pyr-azole-5-carboxamide] | 10 to 30 nM | 10 to 30 nM
Cc1nn(-c2ccccc2)c2sc(C(=O)N[C@H]3CC[C@H](N4CCOCC4)CC3)cc12 [Compound I-8, 3-methyl-N-((1r,4r)-4-morpholinocyclohex-yl)-1-phenyl-1H-thieno [2,3-c]pyrazole-5-carboxamide] | 100 to 500 nM | 100 to 500 nM
Cc1nn(C2C[C@@H](C)O[C@@H](C)C2)c2sc(C(=O)N[C@H]3CC[C@H](N4CCN(C(C)C)CC4)CC3)cc12 (stereo partly drawn) [II-1, 1-((2r,6s)-2,6-dimeth-yltetrahydro-2H-pyr-an-4-yl)-N-((1r,4r)-4-(4-isopropylpiperazin-1-yl)cyclohexyl)-3-methyl-1H-thieno [2,3-c]pyrazole-5-carboxamide] | 500 to 2500 nM | 100 to 500 nM
CC(=O)N1CCN([C@H]2CC[C@H](NC(=O)c3cc4c(C)nn(C5C[C@@H](C)O[C@@H](C)C5)c4s3)CC2)CC1 (stereo partly drawn) [II-2, N-((1r,4r)-4-(4-acetylpiperazin-1-yl)-cyclohexyl)-1-((2r,6s)-2,6-dimeth-yltetrahydro-2H-pyr-ran-4-yl)-3-methyl-1H-thieno[2,3-c]pyr-azole-5-carboxamide] | 100 to 500 nM | 30 to 100 nM
Cc1nn(C2CCC(F)(F)CC2)c2sc(C(=O)N[C@H]3C[C@H](N4CCC(F)(F)C4)C3)cc12 [II-3, 1-(4,4-difluorocyclo-hexyl)-N-(3-(3,3-difluoropyrrolidin-1-yl)cyclobutyl)-3-methyl-1H-thieno [2,3-c]pyrazole-5-carboxamide] | 10 to 30 nM | 10 to 30 nM
Cc1nn(CC(C)C)c2sc(C(=O)N[C@H]3CC[C@H](N4CC(F)(F)C4)CC3)cc12 [II-4, N-((1r,4r)-4-(3,3-difluoroazetidin-1-yl)-cyclohexyl)-1-isobut-yl-3-methyl-1H-thieno [2,3-c]pyrazole-5-carboxamide] | 30 to 100 nM | 10 to 30 nM
Cc1nn(CC(C)C)c2sc(C(=O)N[C@H]3CC[C@H](N4CCN(C(C)C)CC4)CC3)cc12 [II-5, 1-isobutyl-N-((1r,4r)-4-(4-isopropylpiper-azin-1-yl)cyclohexyl)-3-methyl-1H-thieno [2,3-c]pyrazole-5-carboxamide] | 10 to 30 nM | 30 to 100 nM
Cc1nn(CC(C)C)c2sc(C(=O)N[C@H]3CC[C@H](N4CCN(C5CC5)CC4)CC3)cc12 [II-6, N-((1r,4r)-4-(4-cyclo-propylpiperazin-1-yl)-cyclohexyl)-1-isobut-yl-3-methyl-1H-thieno[2,3-c]pyrazole-5-carboxamide] | 30 to 100 nM | 10 to 30 nM
Cc1nn(CC(C)C)c2sc(C(=O)N[C@H]3CC[C@H](N4CCN(CC(F)(F)F)CC4)CC3)cc12 [II-7, 1-isobutyl-3-methyl-N-((1r,4r)-4-(4-(2,2,2-trifluoroethyl)piper-azin-1-yl)cyclohexyl)-1H-thieno[2,3-c]pyr-azole-5-carboxamide] | 30 to 100 nM | 30 to 100 nM
Cc1nn(CC(C)C)c2sc(C(=O)N[C@H]3CC[C@H](N4CCN(CC(F)F)CC4)CC3)cc12 [II-8, N-((1r,4r)-4-(4-(2,2-difluoroethyl)piper-azin-1-yl)cyclohexyl)-1-isobutyl-3-methyl-1H-thieno[2,3-c]pyr-azole-5-carboxamide] | 30 to 100 nM | 30 to 100 nM
CC(=O)N1CCN([C@H]2CC[C@H](NC(=O)c3cc4c(C)nn(C5CCC(F)(F)CC5)c4s3)CC2)CC1 [II-9, N-((1r,4r)-4-(4-acet-ylpiperazin-1-yl)-cyclohexyl)-1-(4,4-difluorocyclohexyl)-3-methyl-1H-thieno [2,3-c]pyrazole-5-carboxamide] | < 10 nM | < 10 nM
Cc1nn(C2CCC(F)(F)CC2)c2sc(C(=O)N[C@H]3CC[C@H](N4CCN(C(C)C)CC4)CC3)cc12 [II-10, 1-(4,4-difluorocyclo-hexyl)-N-((1r,4r)-4-(4-isopropylpiper-azin-1-yl)cyclohex-yl)-3-methyl-1H-thieno[2,3-c]pyra-zole-5-carboxamide] | < 10 nM | < 10 nM
Cc1nn(C2CCC(F)(F)CC2)c2sc(C(=O)N[C@H]3CC[C@H](N4CCN(CC(F)F)CC4)CC3)cc12 [II-11, 1-(4,4-difluorocyclo-hexyl)-N-((1r,4r)-4-(4-(2,2-difluoroeth-yl)piperazin-1-yl)-cyclohexyl)-3-meth-yl-1H-thieno[2,3-c] pyrazole-5-carbox-amide] | 10 to 30 nM | 10 to 30 nM
Cc1nn(C2CCC(F)(F)CC2)c2sc(C(=O)N[C@H]3CC[C@H](N4CCN(CC(F)(F)F)CC4)CC3)cc12 [II-12, 1-(4,4-difluorocyclo-hexyl)-N-((1r,4r)-4-(4-(2,2-trifluoroeth-yl)piperazin-1-yl)-cyclohexyl)-3-meth-yl-1H-thieno[2,3-c] pyrazole-5-carbox-amide] | 10 to 30 nM | < 10 nM
Cc1nn(C2CCC(F)(F)CC2)c2sc(C(=O)N[C@H]3CC[C@H](N4CCOCC4)CC3)cc12 [II-13, 1-(4,4-difluorocyclo-hexyl)-3-methyl-N-((1r,4r)-4-morpho-linocyclohexyl)-1H-thieno[2,3-c]pyrazole-5-carboxamide] | 10 to 30 nM | 10 to 30 nM
Cc1nn(CC(C)C)c2sc(C(=O)N[C@H]3CC[C@H](N4CCOCC4)CC3)cc12 [II-14] | 30 to 100 nM | 30 to 100 nM
Cc1nn(C2CCC(F)(F)CC2)c2sc(C(=O)N[C@H]3CC[C@H](N4CCN(C5CC5)CC4)CC3)cc12 [II-15, N-((1r,4r)-4-(4-cyclo-propylpiperazin-1-yl)cyclohexyl)-1-(4,4-difluorocyclohexyl)-3-methyl-1H-thieno [2,3-c]pyrazole-5-carboxamide] | 10 to 30 nM | 10 to 30 nM
CC(=O)N1CCN([C@H]2CC[C@H](NC(=O)c3cc4c(C)nn(CC(C)C)c4s3)CC2)CC1 [II-16, N-((1r,4r)-4-(4-acet-ylpiperazin-1-yl)-cyclohexyl)-1-iso-butyl-3-methyl-1H thieno[2,3-c]pyrazole-5-carboxamide] | 30 to 100 nM | 10 to 30 nM
Cc1nn(C2CCC(F)(F)CC2)c2sc(C(=O)N[C@H]3CC[C@H](N4CC(F)(F)C4)CC3)cc12 [II-17, N-((1r,4r)-4-(3,3-difluoroazetidin-1-yl)cyclohexyl)-1-(4,4-difluorocyclohexyl)-3-methyl-1H-thieno [2,3-c]pyrazole-5-carboxamide] | < 10 nM | < 10 nM
Cc1nn(C2CCC(F)(F)CC2)c2sc(C(=O)N[C@H]3C[C@H](N4CCOCC4)C3)cc12 [II-18, 1-(4,4-difluorocyclo-hexyl)-3-methyl-N-((1r,3r)-3-morpho-linocyclobutyl)-1H-thieno[2,3-c]pyrazole-5-carboxamide] | 10 to 30 nM | 10 to 30 nM
Cc1nn(CC(C)C)c2sc(C(=O)N[C@H]3CC[C@H](N4CCN(C(=O)N(C)C)CC4)CC3)cc12 [II-19, N-((1r,4r)-4-(4-(dimethylcarbamo-yl)piperazin-1-yl)-cyclohexyl)-1-iso-butyl-3-methyl-1H-thieno[2,3-c]pyrazole-5-carboxamide] | 30 to 100 nM | 10 to 30 nM
